{
  "source": "paper PMC5613053",
  "about": "(Investigational New Drugs, 2017)",
  "key": {"phosphorylated AXL": {"biological_target": "T1, phosphorylated AXL (Homo sapiens, UniProt P30530)", "T1 construct": "expressed in transfected cells; host or cells: MV4-11-AXL cells (MV4-11 exogenously expressing AXL)", "T1 sequence (P30530 26-894)": "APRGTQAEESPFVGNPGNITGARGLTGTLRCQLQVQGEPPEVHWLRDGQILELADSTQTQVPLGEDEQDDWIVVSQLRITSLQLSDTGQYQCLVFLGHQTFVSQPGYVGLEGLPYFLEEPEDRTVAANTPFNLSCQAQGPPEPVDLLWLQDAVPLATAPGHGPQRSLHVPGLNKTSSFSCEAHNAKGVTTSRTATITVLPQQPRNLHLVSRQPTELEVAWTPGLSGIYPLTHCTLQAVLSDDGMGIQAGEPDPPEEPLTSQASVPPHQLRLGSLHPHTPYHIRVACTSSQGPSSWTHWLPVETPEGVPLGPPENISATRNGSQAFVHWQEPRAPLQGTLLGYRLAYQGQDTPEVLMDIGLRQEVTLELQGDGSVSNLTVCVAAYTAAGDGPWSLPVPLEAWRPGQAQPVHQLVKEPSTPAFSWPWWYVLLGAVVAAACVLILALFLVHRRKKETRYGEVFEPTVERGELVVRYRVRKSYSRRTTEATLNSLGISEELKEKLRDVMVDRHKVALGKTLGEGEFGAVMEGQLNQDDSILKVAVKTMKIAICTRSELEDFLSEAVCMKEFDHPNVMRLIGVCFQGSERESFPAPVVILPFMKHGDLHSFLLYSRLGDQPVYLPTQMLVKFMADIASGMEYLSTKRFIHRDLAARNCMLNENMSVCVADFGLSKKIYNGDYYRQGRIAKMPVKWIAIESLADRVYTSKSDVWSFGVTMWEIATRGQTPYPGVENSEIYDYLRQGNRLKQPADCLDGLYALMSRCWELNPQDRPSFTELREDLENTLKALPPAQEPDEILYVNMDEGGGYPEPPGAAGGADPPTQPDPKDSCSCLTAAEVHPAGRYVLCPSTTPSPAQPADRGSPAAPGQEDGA", "assay": "Immunoblot of phospho-AXL in MV4-11-AXL cells", "format": "cell-based", "conditions": "4 h, MV4–11 cells expressing exogenous AXL", "description": "Cells were treated for 4 h prior to cell lysate preparation in RIPA buffer supplemented with phosphatase / protease inhibitors. The protein lysates were subsequently electrophoresed on 7.5% gels and transferred to PVDF membranes.\nAll membranes were blocked using either Blocking One or Blocking One-P (Nacalai Tesque Inc., Kyoto, Japan) for 1 h prior to an overnight incubation with primary antibody. Membranes were incubated overnight at 4°C with one of the following antibodies: anti-FLT3 antibody (Abcam), anti-phosphorylated pan-tyrosine, anti-ERK, anti-phospho-ERK, anti-STAT5, anti-phospho-STAT5, anti-AKT, anti-phospho-AKT, anti-AXL, anti-phospho-AXL, or anti-actin. The membranes were then washed with 1× TBS Tween-20 (TBS-T) Buffer (Thermo Fisher Scientific Inc., Rockford, IL) and incubated with an appropriate HRP-linked secondary antibody (Cell Signaling Technology) for 1 h at room temperature. After a final wash, ECL Western Blotting Detection Reagent ECL-prime (GE Healthcare, Fairfield, CT) were applied to the membranes and signals were detected with a CCD camera (ImageQuant LAS4000; GE Healthcare). Signal intensity was then quantified using ImageQuant™ TL software (GE Healthcare). The study was performed once in triplicate, and the mean percentage of phosphorylated protein to total protein relative to that in vehicle-treated cells was calculated.\nFig. S1. […] Protein lysates were collected in RIPA buffer and immunoblotting was performed to detect both phosphorylated and total levels of AXL (triplicate)."}, "[1]": {"test_system": "parental Ba/F3 cells in the presence of IL-3", "assay": "CellTiter-Glo cell viability, off-target", "format": "cell-based", "conditions": "Mus musculus, BaF3, 48 h; IL-3 present; 2 days of treatment; off-target inhibition; read-out: Cell growth inhibition IC50", "description": "(§1) A detailed protocol is provided in the online resource.\n(§2) The assay was performed in either triplicate or quadruplicate. […] The geometric mean was calculated from three individual experiments."}, "[2]": {"test_system": "Ba/F3 cells expressing FLT3-ITD-D835Y", "assay": "cells", "conditions": "Mus musculus, BaF3, 48 h, read-out: Cell growth inhibition IC50", "description": "as §1\n(§3) To examine the effect of ASP2215 on cell viability, MV4-11, MOLM-13, and Ba/F3 cells expressing either FLT3-ITD, FLT3-D835Y, FLT3-ITD-D835Y, FLT3-ITD-F691L or FLT3-ITD-F691I were seeded into 96-well white plates (Nunc F96 MicroWell™ Plates, white; Thermo Fisher Scientific Inc., Waltham, MA) at 1000 cells/well in Iscove’s Modified Dulbecco’s Medium, 500 cells/well in RPMI 1640 or 1000 cells/well in RPMI 1640, respectively. All cell lines were cultured overnight in a humidified incubator at 37°C with 5% CO2 in media supplemented with 10% heat-inactivated FBS.\n(§4) After treatment, the CellTiter-Glo® Luminescent Cell Viability Assay (Promega) was used according to the manufacturer’s instructions and luminescence was measured using an ARVO-HTS plate reader (Perkin Elmer Inc., Waltham, MA). The assay was performed in either triplicate or quadruplicate. […] The geometric mean was calculated from three individual experiments.\n(§5) The mutants of FLT3 (NM_004119), FLT3-D835Y (gat to tat), FLT3-ITD (insertion of […] at 1799 position of CDS), FLT3-ITD-F691I (ttt to att), FLT3-ITD-F691L (ttt to ctt), FLT3-ITD-D835Y were encoded into pMX-puro vector (Cell Biolabs, Inc., San Diego, CA), and transfected with FuGENE-HD (Promega) into Platinum-E cells. […]"}, "[3]": {"test_system": "Ba/F3 cells expressing FLT3-ITD", "assay": "cells", "conditions": "Mus musculus, BaF3, 48 h, read-out: Cell growth inhibition IC50", "description": "as §1, §3, §4, §5"}, "MV4–11 cells": {"test_system": "MV4–11 cells", "assay": "CellTiter-Glo cell viability", "format": "cell-based", "conditions": "Homo sapiens, MV4-11, 120 h; 5 days of treatment; read-out: Growth inhibition mean IC50", "description": "as §1, §2"}, "c-KIT": {"biological_target": "T2, c-KIT (Homo sapiens, UniProt P10721)", "T2 construct": "purchased Carna Biosciences, Inc", "T2 sequence (P10721 26-976)": "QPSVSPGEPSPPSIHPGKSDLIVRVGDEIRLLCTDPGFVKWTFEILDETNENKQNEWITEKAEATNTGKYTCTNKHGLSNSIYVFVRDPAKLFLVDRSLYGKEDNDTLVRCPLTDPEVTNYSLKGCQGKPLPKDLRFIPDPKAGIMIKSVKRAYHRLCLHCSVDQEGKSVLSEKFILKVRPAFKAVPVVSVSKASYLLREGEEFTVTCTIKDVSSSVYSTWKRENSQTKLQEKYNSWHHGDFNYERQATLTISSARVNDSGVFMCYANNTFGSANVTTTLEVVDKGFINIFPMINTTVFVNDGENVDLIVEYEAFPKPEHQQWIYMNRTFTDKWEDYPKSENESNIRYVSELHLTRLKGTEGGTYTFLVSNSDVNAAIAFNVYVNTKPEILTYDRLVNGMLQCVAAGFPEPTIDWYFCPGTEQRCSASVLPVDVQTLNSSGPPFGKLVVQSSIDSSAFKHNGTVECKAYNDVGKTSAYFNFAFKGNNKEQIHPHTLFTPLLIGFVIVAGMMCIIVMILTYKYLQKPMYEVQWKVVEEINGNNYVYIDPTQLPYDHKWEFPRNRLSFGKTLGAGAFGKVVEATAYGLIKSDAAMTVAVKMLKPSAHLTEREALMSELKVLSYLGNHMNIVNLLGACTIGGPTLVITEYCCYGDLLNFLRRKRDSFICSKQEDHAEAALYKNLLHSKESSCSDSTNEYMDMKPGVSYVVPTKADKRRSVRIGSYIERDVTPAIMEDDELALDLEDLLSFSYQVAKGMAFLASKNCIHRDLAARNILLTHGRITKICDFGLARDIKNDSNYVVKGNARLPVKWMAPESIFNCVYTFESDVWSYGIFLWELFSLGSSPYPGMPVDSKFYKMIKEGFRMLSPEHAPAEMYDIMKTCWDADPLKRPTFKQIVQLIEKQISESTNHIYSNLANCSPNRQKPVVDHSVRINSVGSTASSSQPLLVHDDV", "assay": "Kinase inhibitory assay (TK-ELISA / off-chip MSA)", "format": "biochemical", "experimental": "These assays were conducted according to the manufacturer’s instructions. […] TK-ELISA and MSA assays were used to conduct IC50 studies for FLT3, LTK, AXL, and c-KIT; the HTRF® KinEASE™-TK assay (Sceti Medical Labo, Tokyo, Japan) was performed according to the manufacturer’s protocol to assess the IC50 value of echinoderm microtubule-associated protein-like 4-ALK (EML4-ALK; three individual experiments for each kinase)."}},
  "note": "pIC50: −log10 of the molar value.",
  "data": [
    {"compound": "CCc1nc(C(N)=O)c(Nc2ccc(N3CCC(N4CCN(C)CC4)CC3)c(OC)c2)nc1NC1CCOCC1", "note": "[gilteritinib]", "values": [
      {"measurement": "Decrease of phosphorylated AXL levels", "setting": "phosphorylated AXL; 1 nM", "value": 38, "unit": "%"},
      {"measurement": "Decrease of phosphorylated AXL levels", "setting": "phosphorylated AXL; 10 nM", "value": 29, "unit": "%"},
      {"measurement": "Decrease of phosphorylated AXL levels", "setting": "phosphorylated AXL; 100 nM", "value": 22, "unit": "%"},
      {"measurement": "pIC50", "setting": "[1]", "value": 6.38},
      {"measurement": "pIC50", "setting": "[2]", "value": 8.68},
      {"measurement": "pIC50", "setting": "[3]", "value": 8.74},
      {"measurement": "pIC50", "setting": "MV4–11 cells", "value": 9.04},
      {"measurement": "pIC50", "setting": "c-KIT", "value": 6.64}
    ]}
  ]
}
